In ChEMBL document CHEMBL1201862, “PubChem BioAssay data set” (2004):
“And” between values parts separate entries of the source, which are not always exact repeats. Identical values can stand only once.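 Step 1: Grow cells in 96-well plates. Step 2: Expose to compound for 48 hours at 5 concentrations. Step 3: Interpolate endpoints linearly; if unreached, use highest concentration. GI50: concentration for 50% inhibition of growth.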 The source made the active and inactive calls. Rule as the data show it: active = GI50 up to about 1.1 µM and inactive = higher.

Tests used:
Test in all cases: NCI tumour cell line growth inhibition, 48 h
UO-31 = test system: UO-31
SR = test system: SR
SW-620 = test system: SW-620
RPMI-8226 = test system: RPMI-8226
SK-OV-3 = test system: SK-OV-3
SK-MEL-28 = test system: SK-MEL-28
KM-20L2 = test system: KM-20L2
SF-268 = test system: SF-268
786-0 = test system: 786-0
IGROV-1 = test system: IGROV-1
SNB-19 = test system: SNB-19
KM12 = test system: KM12
HCT-116 = test system: HCT-116
SF-539 = test system: SF-539
A549 = test system: A549
M14 = test system: M14
UACC-257 = test system: UACC-257
NCI-H522 = test system: NCI-H522
SNB-78 = test system: SNB-78
A498 = test system: A498
NCI-H23 = test system: NCI-H23
TK-10 = test system: TK-10
HT-29 = test system: HT-29
RXF 631 = test system: RXF 631
NCI-H226 = test system: NCI-H226
ACHN = test system: ACHN
DLD-1 = test system: DLD-1
UACC-62 = test system: UACC-62
EKVX = test system: EKVX
HCT-15 = test system: HCT-15
SF-295 = test system: SF-295
K562 = test system: K562
SK-MEL-5 = test system: SK-MEL-5
OVCAR-3 = test system: OVCAR-3
LXFL 529 = test system: LXFL 529
OVCAR-4 = test system: OVCAR-4
LOX IMVI = test system: LOX IMVI
Malme-3M = test system: Malme-3M
RXF 393 = test system: RXF 393
SN12C = test system: SN12C
CCRF-CEM = test system: CCRF-CEM
DMS-114 = test system: DMS-114
HL-60 = test system: HL-60
HOP-62 = test system: HOP-62
U-251 = test system: U-251
MOLT-4 = test system: MOLT-4
SNB-75 = test system: SNB-75
DMS-273 = test system: DMS-273
M19-MEL = test system: M19-MEL
HCC 2998 = test system: HCC 2998
CAKI-1 = test system: CAKI-1
OVCAR-8 = test system: OVCAR-8
NCI-H460 = test system: NCI-H460
SK-MEL-2 = test system: SK-MEL-2
NCI/ADR-RES = test system: NCI/ADR-RES
MCF7 = test system: MCF7
Hs-578T = test system: Hs-578T
MDA-MB-435 = test system: MDA-MB-435
COLO 205 = test system: COLO 205
XF498 = test system: XF498
OVCAR-5 = test system: OVCAR-5
MDA-MB-231 = test system: MDA-MB-231
MDA-N = test system: MDA-N
DU-145 = test system: DU-145
HOP-92 = test system: HOP-92
PC-3 = test system: PC-3
T47D = test system: T47D
BT-549 = test system: BT-549

Measured: GI50

Clc1ccc2c(c1)[nH]c1c2nc2ccccn21
inactive: UO-31 19.5 µM | SR 25.1 µM | SW-620 18.5 µM | RPMI-8226 23.7 µM | SK-OV-3 30.3 µM | SK-MEL-28 21.3 µM | KM-20L2 27.9 µM | SF-268 28.6 µM | 786-0 22.1 µM | IGROV-1 30.8 µM | SNB-19 22.4 µM | KM12 19.3 µM | HCT-116 21.2 µM | SF-539 22.6 µM | A549 50.1 µM | M14 24.7 µM | UACC-257 29.2 µM | NCI-H522 19.5 µM | SNB-78 24 µM | A498 27.1 µM | NCI-H23 24.7 µM | TK-10 > 10 µM | HT-29 21.9 µM | RXF 631 43 µM | NCI-H226 22.4 µM

CC(CCCOC(c1ccccc1)(c1ccccc1)c1ccccc1)OC(=O)Nc1cc([N+](=O)[O-])cc([N+](=O)[O-])c1 (configuration not stated)
inactive: ACHN 27.7 µM | UO-31 49 µM | SR 38.5 µM | DLD-1 30.1 µM | UACC-62 16.9 µM | SW-620 33.5 µM | EKVX 32 µM | RPMI-8226 32.5 µM | SK-OV-3 14.8 µM | SK-MEL-28 28.2 µM | SF-295 27 µM | K562 32.1 µM | SK-MEL-5 22.8 µM | OVCAR-3 33.3 µM | LXFL 529 29.2 µM | SF-268 35.5 µM | 786-0 28.2 µM | OVCAR-4 37.5 µM | LOX IMVI 29.9 µM | IGROV-1 30.9 µM | SNB-19 57.5 µM | Malme-3M 27.6 µM | KM12 32.1 µM | RXF 393 43.3 µM | HCT-116 33.9 µM | SN12C 41.5 µM | SF-539 38 µM | CCRF-CEM 32.4 µM | A549 31.6 µM | M14 34.9 µM | DMS-114 30.6 µM | HL-60 31.6 µM | UACC-257 24.3 µM | HOP-62 27.4 µM | NCI-H522 23.7 µM | U-251 36.9 µM | A498 22.8 µM | MOLT-4 28.8 µM | NCI-H23 29 µM | SNB-75 21.3 µM | DMS-273 33.7 µM | M19-MEL 40.3 µM | HCC 2998 35.6 µM | HT-29 28.2 µM | CAKI-1 18.5 µM | RXF 631 38.2 µM | OVCAR-8 33.5 µM | NCI-H460 24.5 µM | SK-MEL-2 29.4 µM
32.4 µM: HCT-15

Nc1nc2c(ncn2C2CCC(CO)O2)c(=O)n1C(=O)c1ccccc1 (configuration not stated)
inactive: ACHN > 100 µM | UO-31 > 100 µM | SR 67.3 µM | DLD-1 > 100 µM | UACC-62 > 100 µM | SW-620 > 100 µM | EKVX > 100 µM | RPMI-8226 > 100 µM | SK-OV-3 > 100 µM | SK-MEL-28 > 100 µM | SF-295 > 100 µM | NCI/ADR-RES > 100 µM | MCF7 > 100 µM | Hs-578T > 100 µM | KM-20L2 > 100 µM | K562 > 100 µM | SK-MEL-5 > 100 µM | OVCAR-3 > 100 µM | LXFL 529 > 100 µM | SF-268 > 100 µM | 786-0 > 100 µM | OVCAR-4 > 100 µM | MDA-MB-435 > 100 µM | LOX IMVI > 100 µM | IGROV-1 > 100 µM | SNB-19 > 100 µM | COLO 205 > 100 µM | Malme-3M > 100 µM | KM12 > 100 µM | RXF 393 > 100 µM | XF498 > 100 µM | HCT-116 > 100 µM | OVCAR-5 > 100 µM | SN12C > 100 µM | SF-539 > 100 µM | CCRF-CEM > 100 µM | A549 > 100 µM | MDA-MB-231 > 100 µM | M14 > 100 µM | DMS-114 > 100 µM | HL-60 > 100 µM | UACC-257 > 100 µM | MDA-N > 100 µM | HOP-62 > 100 µM | NCI-H522 > 100 µM | U-251 > 100 µM | DU-145 > 100 µM | A498 > 100 µM | MOLT-4 > 100 µM | NCI-H23 > 100 µM | TK-10 > 100 µM | SNB-75 > 74.5 µM | DMS-273 > 100 µM | HOP-92 > 100 µM | M19-MEL > 100 µM | HCC 2998 > 100 µM | HT-29 > 100 µM | CAKI-1 > 100 µM | PC-3 > 100 µM | RXF 631 > 100 µM | NCI-H226 > 100 µM | OVCAR-8 > 100 µM | NCI-H460 > 100 µM | T47D > 100 µM | SK-MEL-2 > 100 µM | BT-549 > 100 µM
> 100 µM: HCT-15

CC1OC(n2ncc(=O)[nH]c2=O)C=CC1=O (configuration not stated)
inactive: ACHN 27.9 µM and 37.9 µM | UO-31 > 100 µM | SR 26.7 µM and 33.5 µM | UACC-62 31.8 µM and 60.4 µM | RPMI-8226 33 µM and 24.3 µM | SK-MEL-28 31.9 µM and 21.8 µM | SF-295 52.6 µM | K562 33.1 µM and 44 µM | OVCAR-3 95.3 µM | LXFL 529 > 100 µM and 59 µM | 786-0 36.3 µM and 55.2 µM | OVCAR-4 > 100 µM | LOX IMVI > 100 µM | IGROV-1 > 100 µM | Malme-3M 22.1 µM and 18.8 µM | KM12 46.1 µM and 63 µM | HCT-116 30.4 µM and 55.8 µM | OVCAR-5 > 100 µM | SN12C 70.3 µM and 35.8 µM | SF-539 40.2 µM and 24.2 µM | A549 > 100 µM | HL-60 26.2 µM and 23.7 µM | NCI-H522 20 µM and 18.8 µM | U-251 50.7 µM and 41.2 µM | SNB-78 21.5 µM and 26.9 µM | TK-10 > 100 µM and 71.4 µM | SNB-75 44.5 µM and 55.5 µM | M19-MEL 50.8 µM and 71.3 µM | HCC 2998 > 100 µM | HT-29 41.8 µM and 52.6 µM | CAKI-1 > 100 µM | RXF 631 13.1 µM and 16.4 µM | NCI-H226 > 100 µM | OVCAR-8 37.3 µM and 41.1 µM | NCI-H460 > 100 µM and 63.1 µM

FC(F)(F)c1cc(C2SCc3nc4ccccc4n32)cc(C(F)(F)F)c1 (configuration not stated)
inactive: ACHN > 100 µM | UO-31 > 100 µM | UACC-62 3.87 µM | SK-OV-3 20.5 µM | SF-295 5 µM | KM-20L2 3.37 µM | K562 2.97 µM | LXFL 529 > 100 µM | SF-268 44.9 µM | 786-0 11.4 µM | OVCAR-4 > 100 µM | IGROV-1 8.13 µM | SNB-19 76 µM | Malme-3M 2.92 µM | KM12 4.68 µM | RXF 393 14.8 µM | XF498 8.45 µM | OVCAR-5 > 100 µM | SN12C 2.9 µM | SF-539 24.6 µM | CCRF-CEM 4.51 µM | HL-60 3.87 µM | UACC-257 > 100 µM | HOP-62 5.5 µM | SNB-78 36.7 µM | A498 > 100 µM | MOLT-4 2.97 µM | TK-10 > 100 µM | DMS-273 3.65 µM | HOP-92 20.4 µM | HT-29 3.46 µM | CAKI-1 4.24 µM | RXF 631 10.6 µM | NCI-H226 6.41 µM | OVCAR-8 10.3 µM
